Assay results: paper PMC3901242, “Determining Enzyme Kinetics for Systems Biology with Nuclear Magnetic Resonance Spectroscopy” (Metabolites, 2012)

Biological target: T1, phosphofructokinase (PFK, EC 2.7.1.11) (Escherichia coli, UniProt P0A796)
T1 construct: gene pfkA; native enzyme in whole-cell extract of mid-log micro-aerobic cells (sonication or glass beads), not purified; PFK-1 tetrameric; minor PFK-2 (pfkB) may be present
T1 sequence (P0A796 1-320): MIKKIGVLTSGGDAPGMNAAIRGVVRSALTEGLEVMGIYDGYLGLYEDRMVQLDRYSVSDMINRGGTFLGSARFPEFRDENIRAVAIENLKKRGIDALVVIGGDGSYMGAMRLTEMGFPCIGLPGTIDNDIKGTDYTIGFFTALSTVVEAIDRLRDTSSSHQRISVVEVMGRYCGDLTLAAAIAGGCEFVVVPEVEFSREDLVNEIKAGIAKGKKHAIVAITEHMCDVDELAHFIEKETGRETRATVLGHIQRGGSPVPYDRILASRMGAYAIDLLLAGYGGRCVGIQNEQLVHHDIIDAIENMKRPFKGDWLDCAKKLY
Test: […]-NMR progress curves, global fit to irreversible bi-substrate Hill equation with negative allosteric modifier
Format: biochemical
Conditions: allosteric inhibitor; co-substrates F6P and ATP; PEP 4 and 8 mM initial; 1 mM Mg2+; 100 mM PIPES pH 7.2, 25 °C; cell extract

Fitted parameters ^b: 0.0863 ± 0.0001 mM
Structure (SMILES): C=C(OP(=O)(O)O)C(=O)O [PEP]
